This passage reports inhibition results from ChEMBL document CHEMBL2417420, “Autotaxin inhibition: development and application of computational tools to identify site-selective lead compounds” (Bioorg Med Chem, 2013).

SMILES strings stand for the structures.

This assay addresses Autotaxin (Homo sapiens, UniProt Q13822). The experiment in a line: Inhibition of C-terminal FLAG-tagged human recombinant autotaxin using synthetic substrate FS-3 at 10 uM measured every 2 mins by FRET assay relative to control.
As to `COc1ccc(CNC(=O)N2CC(O)C(N3CCN(c4ccccc4F)CC3)C2)cc1` (configuration not stated), the inhibition is 10%. Turning to `O=C(Cc1ccccc1OC(=O)Cn1c(=O)sc2ccccc21)Cn1c(=O)sc2ccccc21`, the inhibition worked out at 0%. Next, `CCOc1ccc(/N=C\c2ccc(OCC)c(OCC)c2)cc1`: 0%; `COc1ccc(-c2cc(C(=O)NCC(C)C(=O)NCCNc3ccccc3)c3ccccc3n2)cc1` (configuration not stated): 10%. The value for `COc1ccc(CCn2c(CCc3ccccc3)nc3cc(C(=O)NCCOCCO)ccc32)cc1OC` was 10%. The value for `COc1cc(C2C(C#N)=C(SCC(=O)Nc3cccc4ccccc34)NC3=C2C(=O)CCC3)ccc1O` (configuration not stated) was 30%. On to `O=C(COc1cc(Cl)c(Cl)cc1Cl)Nc1ccc(CNC(=O)c2cnc3cc(C(F)(F)F)ccc3c2O)cc1`, for which the inhibition was 10%. Next, `COc1ccc(-c2nc3cc(C(=O)NCCOCCO)ccc3n2CCc2ccc(OC)c(OC)c2)c(OC)c1`: 10%. The value for `Cc1ccc(C(=O)Nc2ccccc2C(=O)O)cc1S(=O)(=O)Nc1ccc(Br)cc1` was 0%; that for `CCC(COc1ccc2oc3ccccc3c2c1)NCCC(=O)N(CC(N)=O)Cc1ccc(C)cc1` (configuration not stated) was 10%. The value for `COCCNS(=O)(=O)c1ccc2c(c1)NC(=O)C(CO)N2C(=O)CN1CCC(N2CCCCC2)CC1` (configuration not stated) was 20%; that for `COc1cc(/C=N/NC(=O)c2cc(-c3ccc4ccccc4c3)n[nH]2)ccc1O` was 10%; that for `CC(O)C(NC(=O)c1ccc(N2CCN(C(=O)CCC(=O)c3ccccc3)CC2)nc1)C(N)=O` (configuration not stated) was 20%. With `O=C(O)c1cc(-c2ccc(/C=C3/SC(=S)N(CCc4ccccc4)C3=O)o2)ccc1Cl`, the inhibition was 20%. The value for `CC(=O)C1=C(C)NC(SCC(=O)Nc2ccc(Br)cc2)=C(C#N)C1c1ccc(O)cc1` (configuration not stated) was 30%; that for `CCOc1cc(/C=C2/NC(=O)N(Cc3cccc(F)c3)C2=O)cc(Cl)c1OCC` was 10%; that for `O=C(O)[C@@H](Cc1ccc(O)cc1)/N=C1\S/C(=C\c2ccc(-c3cccc(Cl)c3)o2)C(=O)N1c1ccccc1` was 30%. As for `Nc1c(/N=N/c2ccc(-c3ccc(/N=N/c4ccc(O)cc4)cc3)cc2)c(S(=O)(=O)O)cc2cc(S(=O)(=O)O)c(/N=N/c3ccccc3)c(O)c12`, the inhibition came to 0%.

On to `COc1ccc(CCn2c(-c3cc(OC)c(OC)c(OC)c3)nc3cc(C(=O)NCCOCCO)ccc32)cc1OC`, for which the inhibition stood at 20%. Next, `CC(C)c1ccc(OCC(=O)N2CCN(c3ncccc3C(=O)N3CCCC3C(N)=O)CC2C)cc1` (configuration not stated): 30%; `COc1cc(C2CC(=O)NC(SCc3ccccc3)=C2C#N)ccc1O` (configuration not stated): 30%; `Cc1[nH]c2ccccc2c1CC(=O)N1CCN(C(=O)c2ccccc2C(=O)c2ccc(Cl)cc2)CC1`: 30%. The value for `Cn1cc(S(=O)(=O)N2CCc3ccccc32)cc1C(=O)N1CCC(Cc2ccccc2)CC1` was 30%; that for `O=C(O)CN1C(=O)/C(=C\c2ccc(OCc3cccc4ccccc34)cc2)SC1=S` was 30%; that for `COc1ccc(CCn2c(-c3cc(OC)c(OC)c(OC)c3)nc3cc(C(=O)NCCc4ccccc4)ccc32)cc1OC` was 30%.

In the case of `O=C(NCCOCCO)c1ccc2c(c1)nc(CN1CCC(N3CCCC3)CC1)n2CC1CC1`, the inhibition came out at 10%.

Consider `COc1ccc(-c2cc(C(=O)NCCC(=O)NCc3ccccc3OC)c3ccccc3n2)cc1`, for which the inhibition turned out to be 20%. In the case of `CCc1nc2ccc(C(=O)N3CCN(C(C)=O)CC3)cn2c1N(C)C(=O)COc1ccccc1`, the inhibition worked out at 0%. `CCCCS(=O)(=O)N1CCn2nc(C3CCC(CNS(=O)(=O)c4ccccc4C)CC3)cc21` (configuration not stated): the inhibition stood at 30%. Take `CCCCCOc1ccc(/C=N/c2ccc(/N=C/c3ccc(OCCCCC)cc3)c(Cl)c2)cc1`: the inhibition is 0%.

`Cc1ccc(C)c(N2CCN(C3CN(C(=O)NCCc4ccccc4)CC3O)CC2)c1` (configuration not stated): the inhibition was 10%. In the case of `CCn1c(CN2CCc3ccccc3C2)nc2cc(C(=O)NCC(O)CO)ccc21` (configuration not stated), the inhibition was 20%.

By inhibition is commonly meant the percentage by which the read-out fell short of the control.
